Measurements published in publication PMC10608790, “Structural Diversity and Biological Activity of Cyanopeptolins Produced by Nostoc edaphicum CCNP1411” (Marine Drugs, 2023).

Key:
Type in all cases: biochemical
[1] = biological target: T1, trypsin (Bos taurus, UniProt P00760); experiment: Trypsin inhibition assay; conditions: class symbol instead of IC50
T1 sequence (P00760 24-246): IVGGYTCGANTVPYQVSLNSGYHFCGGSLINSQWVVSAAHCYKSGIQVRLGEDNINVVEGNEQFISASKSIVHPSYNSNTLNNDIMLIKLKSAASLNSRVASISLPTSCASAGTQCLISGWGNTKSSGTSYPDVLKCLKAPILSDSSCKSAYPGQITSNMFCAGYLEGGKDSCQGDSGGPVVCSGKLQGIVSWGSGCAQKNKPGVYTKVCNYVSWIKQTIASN
Method: (§1) The enzyme inhibitory activity of cyanopeptolins was assayed against trypsin [108], chymotrypsin, thrombin [109], and elastase as described before. In brief, the samples were prepared and serially diluted (1 mg, 1:1—1:10,000 times) in 1% DMSO; the standard inhibitors: aprotinin (trypsin and chymotrypsin) AEBSF 4-(2-aminoethyl)benzenesulfonyl fluoride hydrochloride (thrombin), elastatinal (elastase) (all from Sigma Aldrich; St. Louis, MO, USA) were also prepared in 1% DMSO. DMSO (1%) without the addition of the enzyme served as a negative control. All tests were carried out in triplicates. After the incubation of the assay mixtures, the absorbances were measured at 405 nm (Varioskan Flash Thermo Fisher Scientific OY, Vantaa, Finland). The reduction in enzyme activity greater than 50% was considered as significant.

[2] = test system: chymotrypsin; experiment: Chymotrypsin inhibition assay; conditions: read-out: CHY (chymotrypsin) IC50
Method: as §1, with “In” for “The enzyme inhibitory activity of cyanopeptolins was assayed against trypsin [108], chymotrypsin, thrombin [109], and elastase as described before. In”

[3] = biological target: elastase (Sus scrofa, UniProt P00772); experiment: Elastase inhibition assay; conditions: class symbol instead of IC50
Method: as §1

[4] = biological target: thrombin (Homo sapiens, UniProt P00734); experiment: Thrombin inhibition assay; conditions: highest concentration in the assay 45 µg × mL−1
Method: as §1

Chain of elastase (P00772 27-266): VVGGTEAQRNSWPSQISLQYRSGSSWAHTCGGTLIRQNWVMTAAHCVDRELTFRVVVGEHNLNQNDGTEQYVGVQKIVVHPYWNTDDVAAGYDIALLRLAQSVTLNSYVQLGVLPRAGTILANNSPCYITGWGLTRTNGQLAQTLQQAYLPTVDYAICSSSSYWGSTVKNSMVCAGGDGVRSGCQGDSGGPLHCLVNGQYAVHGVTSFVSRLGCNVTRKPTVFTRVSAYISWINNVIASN

## CCCCCC(=O)N[C@@H](CC(=O)O)C(=O)N[C@@H]1C(=O)N[C@@H](Cc2ccccc2)C(=O)N[C@H]2CC[C@@H](O)N(C2=O)[C@@H](Cc2ccccc2)C(=O)N(C)[C@@H](Cc2ccccc2)C(=O)N[C@@H](C(C)C)C(=O)O[C@@H]1C [CP 981, [Thr + Phe + Ahp + Phe + MePhe + Val]Asp + HA]
[1]
  TRY (trypsin) inhibition class: − (not active (inhibition below 50%))
[2]
  IC50: 3.92 µM
[3]
  E (elastase) inhibition class: − (not active (inhibition below 50%))
[4]
  TRB (thrombin) inhibition class: − (not active (inhibition below 50%))
